Measurements: patent US5391800A, “Method for inhibition of cell motility by sphingosine-1-phosphate, its derivatives and mimetics and method of synthesizing sphingosine-1-phosphate and its derivatives” (The Biomembrane Institute, priority 1993, dated 1995)

How the values were obtained:
[1] = tested on: PKC of B16/F1 melanoma cells; assay: PKC activity of B16/F1 melanoma cells (32P incorporation into histone IIIS); format: biochemical, mouse; details: concentration not given
Protocol: Effects of SPN derivatives on protein kinase C activity and cell growth of B16/F1 cells was also investigated. […] Toxicity of these compounds to B16/F1 cells and human neutrophils was also examined using a trypan blue exclusion assay after 1 hour incubation with the compounds.
*Mean ± S.E. (n = 3). For controls (defined as 100%), PKC activity was
33225 cpm per tube per 20 min, as measured by ^32 P incorporation int

B16/F1 melanoma cells [2] = assay: Growth of B16/F1 melanoma cells (cell count after 48 hr); format: cell-based, mouse; details: Mus musculus, B16-F1; 10 μM; 48 hr; control = 100%; mean ± S.E., n = 3
Protocol: *Mean ± S.E. (n = 3). For controls (defined as 100%), cell number was
10^5 cells were seeded and
cultured on a 35 mm plastic dish in Dulbecco's modified Eagle's medium
containing 2% fetal bovine serum in the presence or absence of SPN
derivatives. 48 hr later, cells were counted.

B16/F1 melanoma cells [3] = assay: Chemotactic motility of B16/F1 cells through MATRI-GEL-coated transwell filter; format: cell-based, mouse; details: percent relative to control; mean ± S.E., n = 3 or 4; concentration not given
Protocol: (§1) The assays for determining chemotactic cell motility and chemoinvasion can be performed using transwell plates with a polycarbonate membrane filter (pore size 8 μm) (Costar Scientific, Cambridge, Mass.). Aliguots, e.g., 50 μl, of an aqueous solution of MATRI-GEL (Collaborative Research, Bedford, Mass.) containing SPN-1-P or other inhibitor (e.g., 20 μg/ml for chemotactic motility assay or 200 μg/ml for chemoinvasion assay), is added to each well and dried overnight. The filter is then fitted onto the lower chamber plate. The lower chamber can contain conditioned medium (CM) (i.e., medium used for splenic stromal cell culture, and containing motility factor secreted by these cells), e.g., 0.6 ml, with or without SPN-1-P or other inhibitor. To the upper chamber is added, e.g., about 100 μl, of cell suspension (5×10^4 cells/ml for invasion assay, 5×10^5 cells/ml for motility assay), which is then incubated in 5% CO2 at 37° C. for 70-72 hours (invasion assay) or 20 hours (motility assay). After incubation, cells remaining in the upper chamber are wiped off with a cotton swab, and cells which had migrated to the lower chamber side of the filter are fixed in methanol for 30 seconds and stained with 0.05% toluidine blue. The filter is removed, the stain is solubilized in 10% acetic acid (e.g., 0.1 ml for invasion assay, 0.5 ml for motility assay), and color intensity (optical density) is quantitated by ELISA reading at 630 nm. Using SPN-1-P, a linear relationship was observed between cell number and toluidine blue optical density (FIG. 7).
(§2) Assays were performed using transwell plates with polycarbonate membrane filters (pore size 8 μm) (Costar Scientific, Cambridge, Mass.). 50 μl aliguots of an aqueous solution of MATRI-GEL (Collaborative Research, Bedford, Mass.) containing 20 μg/ml (for chemotactic motility assay) or 200 μg/ml (for chemoinvasion assay) were added to each well and dried overnight. The filter was fitted onto the lower chamber plate. The lower chamber contained 0.6 ml conditioned medium (CM) (i.e., medium used for splenic stromal cell culture, and containing motility factor secreted by these cells) with or without the suspected inhibitor. To the upper chamber was added 100 μl of cell suspension (5×10^4 cells/ml for invasion assay, 5×10^5 cells/ml for motility assay), which was then incubated in 5% CO2 at 37° C. for 70-72 hours (invasion assay) or 20 hours (motility assay). After incubation, cells remaining in the upper chamber were wiped off with a cotton swab, and cells which had migrated to the lower chamber side of the filter were fixed in methanol for 30 seconds and stained with 0.05% toluidine blue. The filter was removed, the stain was solubilized in 10% acetic acid (0.1 ml for invasion assay, 0.5 ml for motility assay), and color intensity (optical density) was quantitated by ELISA reading at 630 nm. A linear relationship was observed between cell number and toluidine blue optical density (FIG. 7.).
In experiments with different quantities of MATRI-GEL, cell migration through transwell filter was maximal with 1 μg/well was applied, and when CM was used (FIG. 8). Therefore, chemotactic cell motility, as affected by various SPN derivatives, was assayed under these conditions.
*Mean ± S.E. of percent relative to control (n = 4). Actual O.D. value
and 0.147 (HT1080). 6 × 10^4 cells were placed on a transwell
filter coated with 1.0 μg MATRIGEL in the upper chamber, and cultured
for 18 hours in the presence of CM and SPN1-P in the lower chamber.

B16/F1 melanoma cells [4] = assay: Chemoinvasion of B16/F1 cells through thick MATRI-GEL layer on transwell filter; format: cell-based, mouse; details: percent relative to control; mean ± S.E., n = 3 or 4; concentration not given; 4200 min
Protocol: as §1, §2
Chemoinvasion was measured by the ability of tumor cells in CM (as described above) to migrate through a thick layer of MATRI-GEL during a prolonged incubation period (70 hours). This property is distinct from chemotactic cell motility, which involves a much shorter incubation period (20 hours) and a thin layer of MATRI-GEL. For the chemoinvasion assay, 10 μg of MATRI-GEL was applied to a polycarbonate transwell filter and migration was observed following 70 hours incubation (based on results shown in FIG. 8).

human neutrophils = assay: Phagokinetic activity of human neutrophils on gold sol-coated plates; format: cell-based; details: 4.5 μM; 2 hours; mean ± S.D.; control 6.3 ± 2.3
Protocol: Phagokinetic activity is measured by the ability of cells to ingest foreign particles while moving. Cell motility can be estimated as the area of a phagokinetic track on gold sol particle-coated plates as previously described {Albrecht-Buehler, Cell, 11:395 (1977)}. A uniform coating of gold particles is prepared on glass coverslips precoated with bovine serum albumin, and coverslips are rinsed repeatedly to remove non-adhering or loosely-adhering gold particles. Freshly-prepared neutrophils or tumor cells detached from culture are placed in a Petri dish containing the gold sol-coated plate, and incubated for about 2 hours (for human neutrophils) or about 18 hours (for tumor cells). The coverslips are fixed for 1 hour in a 4% formaldehyde solution in phosphate-buffered saline (PBS) and mounted on microscope slides. The phagokinetic tracks are observed on a television connected to a light microscope (Nikon, Tokyo, Japan). Tracks on the television are transferred to translucent sheets, which are then photocopied. Phagokinetic activity is quantitated by cutting and weighing the swept area in the copy.
Cell motility was estimated as the area of phagokinetic track on gold sol particle-coated plates as previously described {Albrecht-Buehler, Cell, 11:395 (1977)}. A uniform coating of gold particles was prepared on glass coverslips precoated with bovine serum albumin, and the coverslips were rinsed repeatedly to remove non-adhering or loosely-adhering gold particles. Freshly-prepared neutrophils or tumor cells detached from culture were placed in a Petri dish containing the gold sol-coated plate, and incubated for 2 hours (for human neutrophils) or 18 hours (for tumor cells). The coverslips were fixed for 1 hour in 4% formaldehyde solution in phosphate-buffered saline (PBS) and mounted on microscope slides. The phagokinetic tracks were observed on a television connected to a light microscope (Nikon, Tokyo, Japan). Tracks on the television were transferred to translucent sheets, which were then photocopied. Phagokinetic activity was quantitated by cutting and weighing the swept area in the copy.
**mean ± S.D. Freshlyprepared neutrophils (1 × 10^4
cell/plate) were seeded on a coverslip precoated with gold sol particles
in the presence or absence of test compound. 2 hours later, incubation wa
terminated by adding 200 μl of 10% formaldehyde and the cleared area
was estimated as described in the text.

Molecule | PKC inhibition [1] | activity at 10 µM (B16/F1 melanoma cells [2]) [%] | % motility (B16/F1 melanoma cells [3]) [%] | % invasion (B16/F1 melanoma cells [4]) [%] | Cleared area (human neutrophils)
CCCCCCCCCCCCC/C=C/[C@@H](O)[C@H](CO)N(C)C [DMS, N,N-dimethylsphingosine] | in striking contrast to DMS and TMS, SPN-1-P does not inhibit PKC | – | – | – | –
CCCCCCCCCCCCC/C=C/[C@@H](O)[C@H](CO)NC(C)=O [N-acetyl-SPN] | – | 102 ± 4 | 99 ± 16 | 96 ± 14 | –
NCCO [ethanolamine] | – | – | 85 ± 13 | 140 ± 41 | –
NCCOP(=O)(O)O [phosphoethanolamine] | – | – | 86 ± 20 | 160 ± 57 | 5.9 ± 2.5 × 10^3 μm^2
ceramide | – | – | – | – | 5.7 ± 3.0 × 10^3 μm^2
ceramide monohexoside [CMH] | – | – | 162 ± 29 | 178 ± 70 | –
phosphatidylethanolamine | – | – | 107 ± 18 | 104 ± 37 | –
sphingomyelin | – | – | 82 ± 11 | 138 ± 18 | –
